Source: ChEMBL document CHEMBL1139355, “Selectively targeting T- and B-cell lymphomas: a benzothiazole antagonist of alpha4beta1 integrin” (J Med Chem, 2009)

target: Integrin alpha-4/beta-1 (Homo sapiens, UniProt P05556+P13612); experiment: Inhibition of human integrin alpha-4-beta-1-mediated MOLT4 cell adhesion to biotin-conjugated CS-1 peptide; assay type: cell-based, MOLT-4
Sequence (P05556 whole entry): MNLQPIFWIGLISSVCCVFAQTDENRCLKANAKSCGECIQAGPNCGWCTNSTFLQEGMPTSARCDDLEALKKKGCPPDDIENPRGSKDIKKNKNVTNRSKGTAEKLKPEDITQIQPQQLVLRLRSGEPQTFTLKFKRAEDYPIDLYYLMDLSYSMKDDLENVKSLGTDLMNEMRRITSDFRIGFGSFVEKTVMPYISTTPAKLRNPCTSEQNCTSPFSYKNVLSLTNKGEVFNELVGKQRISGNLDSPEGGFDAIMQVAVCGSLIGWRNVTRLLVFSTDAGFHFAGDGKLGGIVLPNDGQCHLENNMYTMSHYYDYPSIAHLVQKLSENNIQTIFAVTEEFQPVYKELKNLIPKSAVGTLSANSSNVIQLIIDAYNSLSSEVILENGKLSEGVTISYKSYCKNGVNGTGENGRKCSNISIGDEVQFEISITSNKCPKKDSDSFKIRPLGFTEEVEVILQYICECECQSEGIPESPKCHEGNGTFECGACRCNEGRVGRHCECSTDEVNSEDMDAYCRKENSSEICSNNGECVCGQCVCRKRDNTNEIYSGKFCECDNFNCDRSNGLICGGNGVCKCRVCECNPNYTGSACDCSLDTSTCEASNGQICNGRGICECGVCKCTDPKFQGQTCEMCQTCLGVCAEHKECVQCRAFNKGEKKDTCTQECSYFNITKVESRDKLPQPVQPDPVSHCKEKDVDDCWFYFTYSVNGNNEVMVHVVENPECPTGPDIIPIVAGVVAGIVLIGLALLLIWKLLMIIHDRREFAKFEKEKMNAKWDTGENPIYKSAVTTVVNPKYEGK
Sequence (P13612 whole entry): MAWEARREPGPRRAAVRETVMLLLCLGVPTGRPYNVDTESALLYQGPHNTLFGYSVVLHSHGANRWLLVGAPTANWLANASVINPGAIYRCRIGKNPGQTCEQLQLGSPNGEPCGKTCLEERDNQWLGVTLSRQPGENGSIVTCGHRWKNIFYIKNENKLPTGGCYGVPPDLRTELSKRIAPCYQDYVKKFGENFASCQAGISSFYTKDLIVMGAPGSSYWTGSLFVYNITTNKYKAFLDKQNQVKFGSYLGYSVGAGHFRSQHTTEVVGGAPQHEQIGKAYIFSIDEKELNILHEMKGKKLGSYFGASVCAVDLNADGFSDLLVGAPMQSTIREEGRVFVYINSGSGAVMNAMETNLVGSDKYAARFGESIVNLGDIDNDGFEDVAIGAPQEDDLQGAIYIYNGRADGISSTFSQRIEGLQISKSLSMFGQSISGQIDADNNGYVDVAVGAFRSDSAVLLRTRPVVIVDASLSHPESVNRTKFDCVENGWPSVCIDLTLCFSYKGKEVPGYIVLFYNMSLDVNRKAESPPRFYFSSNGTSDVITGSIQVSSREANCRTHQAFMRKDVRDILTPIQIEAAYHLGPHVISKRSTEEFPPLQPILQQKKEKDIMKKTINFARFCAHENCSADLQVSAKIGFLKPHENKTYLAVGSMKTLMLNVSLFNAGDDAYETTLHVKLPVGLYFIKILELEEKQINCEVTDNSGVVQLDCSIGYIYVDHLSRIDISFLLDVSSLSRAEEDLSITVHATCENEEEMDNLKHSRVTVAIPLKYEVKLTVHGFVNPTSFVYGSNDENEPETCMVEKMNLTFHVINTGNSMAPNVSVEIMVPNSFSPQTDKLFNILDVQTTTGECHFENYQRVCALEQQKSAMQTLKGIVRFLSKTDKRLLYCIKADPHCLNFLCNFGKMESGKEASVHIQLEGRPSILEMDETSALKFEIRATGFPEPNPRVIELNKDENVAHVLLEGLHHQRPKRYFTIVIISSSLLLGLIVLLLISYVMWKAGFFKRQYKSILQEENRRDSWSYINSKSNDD

SMILES	IC50
NC(=O)C1(NC(=O)[C@H](CCCC(=O)O)NC(=O)[C@H](CCCCNC(=O)/C=C/c2cccnc2)NC(=O)Cc2ccc(Nc3nc4ccccc4[nH]3)cc2)CCCCC1	0.305 nM
NC(=O)C1(NC(=O)[C@@H](CCCC(=O)O)NC(=O)[C@@H](CCCCNC(=O)/C=C/c2cccnc2)NC(=O)CCc2ccc(Nc3nc4cc(Br)ccc4[nH]3)cc2)CCCCC1	378 nM
NC(=O)C1(NC(=O)[C@@H](CCCC(=O)O)NC(=O)[C@@H](CCCCNC(=O)/C=C/c2cccnc2)NC(=O)c2ccc(Nc3nc4ccccc4s3)cc2)CCCCC1	346 nM
NC(=O)C1(NC(=O)[C@@H](CCCC(=O)O)NC(=O)[C@@H](CCCCNC(=O)/C=C/c2cccnc2)NC(=O)Cc2ccc(Nc3nc4ccccc4s3)cc2)CCCCC1	0.0525 nM
